Experiments:
Type in all cases: in vivo
[1] = test system: barnyardgrass (Echinochloa crus-galli); assay: Test B pre/postemergence
Procedure, shortened: (§1)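 Test chemicals in a non-phytotoxic solvent mixture with surfactant were applied preemergence to planted seeds and postemergence to plants 2 to 18 cm tall (1- to 4-leaf stage). After 13 to 15 days in a greenhouse, injury was visually rated against untreated controls on a 0 to 100 scale.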

[2] = test system: giant foxtail (Setaria faberii); assay: Test B pre/postemergence
Procedure, shortened: as §1

[3] = test system: lambsquarters (Chenopodium album); assay: Test B pre/postemergence
Procedure, shortened: as §1

[4] = test system: velvetleaf (Abutilon theophrasti); assay: Test B pre/postemergence
Procedure, shortened: as §1

[5] = test system: wheat (Triticum aestivum); assay: Test B pre/postemergence
Procedure, shortened: as §1

[6] = test system: cocklebur (Xanthium strumarium); assay: Test B pre/postemergence
Procedure, shortened: as §1

corn (Zea mays) = assay: Test B pre/postemergence
Procedure, shortened: as §1

[7] = test system: morningglory (Ipomoea coccinea); assay: Test B pre/postemergence
Procedure, shortened: as §1

[8] = test system: Surinam grass (Brachiaria decumbens); assay: Test B pre/postemergence
Procedure, shortened: as §1

[9] = test system: pigweed (Amaranthus retroflexus); assay: Test B pre/postemergence
Procedure, shortened: as §1

[10] = test system: crabgrass (Digitaria sanguinalis); assay: Test B pre/postemergence
Procedure, shortened: as §1

[11] = test system: barnyardgrass (Echinochloa crus-galli); assay: Test B flooded paddy test; conditions: Flood, 1000 g ai/ha; scale 0 (no effect) to 100 (complete control)
Procedure, shortened: (§2)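 Plants were grown to the 2-leaf stage before treatment, then kept in a greenhouse for 13 to 15 days. Injury was rated visually against untreated controls on a 0 to 100 scale, where 0 is no effect and 100 is complete control.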

rice (Oryza sativa) = assay: Test B flooded paddy test; conditions: Flood, 1000 g ai/ha; scale 0 to 100
Procedure, shortened: as §2

[12] = test system: umbrella sedge (Cyperus difformis); assay: Test B flooded paddy test; conditions: Flood, 1000 g ai/ha; scale 0 to 100
Procedure, shortened: as §2

[13] = test system: duck salad (Heteranthera limosa); assay: Test B flooded paddy test; conditions: Flood, 1000 g ai/ha; scale 0 to 100
Procedure, shortened: as §2

wild oat (Avena fatua) = assay: Test B postemergence; conditions: for Oat, Wild plant response rating: 125 g ai/ha, scale 0 to 100 (0 no effect, 100 complete control); for Plant response rating, Oat, Wild: 500 g ai/ha, scale 0 to 100
Procedure, shortened: as §1

[14] = test system: blackgrass (Alopecurus myosuroides); assay: Test B postemergence; conditions: for Blackgrass plant response rating: 125 g ai/ha, scale 0 to 100 (0 no effect, 100 complete control); for Plant response rating, Blackgrass: 500 g ai/ha, scale 0 to 100
Procedure, shortened: as §1

[15] = Postemergence, 125 g ai/ha, scale 0 to 100 (0 no effect, 100 complete control)
[16] = Postemergence, 500 g ai/ha, scale 0 to 100
[17] = Preemergence, 125 g ai/ha, scale 0 to 100 (0 no effect, 100 complete control)
[18] = Preemergence, 500 g ai/ha, scale 0 to 100 (0 no effect, 100 complete control)

SMILES: COC(=O)Cc1nc(C2CC2)nc(N)c1Br [Compound 13]
- Barnyardgrass plant response rating [1, 15]: 0
- Plant response rating, Barnyardgrass [1, 16]: 10
- Plant response rating, Barnyardgrass [1, 17]: 40
- Barnyardgrass plant response rating [1, 18]: 80
- Foxtail, Giant plant response rating [2, 15]: 10
- Plant response rating, Foxtail, Giant [2, 16]: 20
- Plant response rating, Foxtail, Giant [2, 17]: 20
- Foxtail, Giant plant response rating [2, 18]: 40
- Lambsquarters plant response rating [3, 15]: 60
- Plant response rating, Lambsquarters [3, 16]: 70
- Plant response rating, Lambsquarters [3, 17]: 90
- Lambsquarters plant response rating [3, 18]: 100
- Velvetleaf plant response rating [4, 15]: 40
- Plant response rating, Velvetleaf [4, 16]: 50
- Plant response rating, Velvetleaf [4, 17]: 80
- Velvetleaf plant response rating [4, 18]: 90
- Wheat plant response rating [5, 15]: 0
- Plant response rating, Wheat [5, 16]: 0
- Plant response rating, Wheat [5, 17]: 40
- Wheat plant response rating [5, 18]: 60
- Cocklebur plant response rating [6, 15]: 10
- Plant response rating, Cocklebur [6, 16]: 40
- Plant response rating, Cocklebur [6, 17]: 90
- Cocklebur plant response rating [6, 18]: 100
- Corn plant response rating (corn (Zea mays); [15]): 0
- Plant response rating, Corn (corn (Zea mays); [16]): 0
- Corn plant response rating (corn (Zea mays); [18]): 30
- Morningglory plant response rating [7, 15]: 50
- Plant response rating, Morningglory [7, 16]: 70
- Plant response rating, Morningglory [7, 17]: 90
- Morningglory plant response rating [7, 18]: 100
- Surinam Grass plant response rating [8, 15]: 0
- Plant response rating, Surinam Grass [8, 16]: 0
- Plant response rating, Surinam Grass [8, 17]: 0
- Pigweed plant response rating [9, 15]: 50
- Plant response rating, Pigweed [9, 16]: 70
- Plant response rating, Pigweed [9, 17]: 80
- Pigweed plant response rating [9, 18]: 90
- Crabgrass plant response rating [10, 15]: 20
- Plant response rating, Crabgrass [10, 16]: 30
- Plant response rating, Crabgrass [10, 17]: 50
- Crabgrass plant response rating [10, 18]: 70
- Plant response rating, Barnyardgrass [11]: 0
- Plant response rating, Rice (rice (Oryza sativa)): 0
- Plant response rating, Sedge, Umbrella [12]: 0
- Plant response rating, Ducksalad [13]: 0
- Oat, Wild plant response rating (wild oat (Avena fatua)): 0
- Plant response rating, Oat, Wild (wild oat (Avena fatua)): 0
- Blackgrass plant response rating [14]: 10
- Plant response rating, Blackgrass [14]: 20

SMILES: CCCOC(=O)c1nc(C2CC2)nc(N)c1Br [Compound 15]
- Barnyardgrass plant response rating [1, 15]: 90
- Plant response rating, Barnyardgrass [1, 16]: 90
- Plant response rating, Barnyardgrass [1, 17]: 40
- Barnyardgrass plant response rating [1, 18]: 90
- Foxtail, Giant plant response rating [2, 15]: 40
- Plant response rating, Foxtail, Giant [2, 16]: 70
- Plant response rating, Foxtail, Giant [2, 17]: 40
- Foxtail, Giant plant response rating [2, 18]: 80
- Lambsquarters plant response rating [3, 15]: 100
- Plant response rating, Lambsquarters [3, 16]: 100
- Plant response rating, Lambsquarters [3, 17]: 90
- Lambsquarters plant response rating [3, 18]: 100
- Velvetleaf plant response rating [4, 15]: 80
- Plant response rating, Velvetleaf [4, 16]: 90
- Plant response rating, Velvetleaf [4, 17]: 70
- Velvetleaf plant response rating [4, 18]: 100
- Wheat plant response rating [5, 15]: 40
- Plant response rating, Wheat [5, 16]: 70
- Plant response rating, Wheat [5, 17]: 40
- Wheat plant response rating [5, 18]: 60
- Cocklebur plant response rating [6, 15]: 100
- Plant response rating, Cocklebur [6, 16]: 100
- Plant response rating, Cocklebur [6, 17]: 70
- Cocklebur plant response rating [6, 18]: 100
- Corn plant response rating (corn (Zea mays); [15]): 50
- Plant response rating, Corn (corn (Zea mays); [16]): 80
- Plant response rating, Corn (corn (Zea mays); [17]): 20
- Corn plant response rating (corn (Zea mays); [18]): 80
- Morningglory plant response rating [7, 15]: 100
- Plant response rating, Morningglory [7, 16]: 100
- Plant response rating, Morningglory [7, 17]: 70
- Morningglory plant response rating [7, 18]: 100
- Surinam Grass plant response rating [8, 15]: 60
- Plant response rating, Surinam Grass [8, 16]: 90
- Plant response rating, Surinam Grass [8, 17]: 30
- Surinam Grass plant response rating [8, 18]: 90
- Pigweed plant response rating [9, 15]: 80
- Plant response rating, Pigweed [9, 16]: 100
- Plant response rating, Pigweed [9, 17]: 90
- Pigweed plant response rating [9, 18]: 100
- Crabgrass plant response rating [10, 15]: 30
- Plant response rating, Crabgrass [10, 16]: 60
- Plant response rating, Crabgrass [10, 17]: 70
- Crabgrass plant response rating [10, 18]: 90
- Plant response rating, Barnyardgrass [11]: 90
- Plant response rating, Rice (rice (Oryza sativa)): 70
- Plant response rating, Sedge, Umbrella [12]: 70
- Plant response rating, Ducksalad [13]: 80
- Oat, Wild plant response rating (wild oat (Avena fatua)): 10
- Plant response rating, Oat, Wild (wild oat (Avena fatua)): 70
- Blackgrass plant response rating [14]: 70
- Plant response rating, Blackgrass [14]: 80

Source: patent US8802597B2, “Herbicidal pyrimidines” (E I du Pont de Nemours and Company, priority 2003, dated 2014)
